In patent publication US20080090836A1, “Pyrazole Compounds Useful In The Treatment Of Inflammation” (priority 2004, published 2008):

Target: T1, purified human 15-lipoxygenase (Homo sapiens, UniProt P16050)
T1 sequence (P16050 1-662): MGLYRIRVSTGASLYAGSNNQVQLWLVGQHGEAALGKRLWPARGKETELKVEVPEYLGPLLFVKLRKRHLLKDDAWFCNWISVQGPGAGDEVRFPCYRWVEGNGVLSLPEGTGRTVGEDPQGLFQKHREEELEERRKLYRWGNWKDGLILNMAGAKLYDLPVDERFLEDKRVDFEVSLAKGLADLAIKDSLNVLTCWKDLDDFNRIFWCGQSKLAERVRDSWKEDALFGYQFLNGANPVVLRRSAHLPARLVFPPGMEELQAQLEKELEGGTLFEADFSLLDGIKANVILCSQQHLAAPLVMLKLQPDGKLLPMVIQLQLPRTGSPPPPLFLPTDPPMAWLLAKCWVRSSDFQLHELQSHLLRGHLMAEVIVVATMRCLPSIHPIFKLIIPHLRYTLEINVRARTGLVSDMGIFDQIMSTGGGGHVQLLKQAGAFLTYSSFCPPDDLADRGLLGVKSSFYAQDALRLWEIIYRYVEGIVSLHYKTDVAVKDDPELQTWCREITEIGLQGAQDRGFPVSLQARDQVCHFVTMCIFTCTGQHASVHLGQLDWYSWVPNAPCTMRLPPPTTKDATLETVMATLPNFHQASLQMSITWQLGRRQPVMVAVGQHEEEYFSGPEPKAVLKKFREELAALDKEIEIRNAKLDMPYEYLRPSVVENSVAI
Assay: 15-lipoxygenase inhibition assay (oxidation of arachidonic acid, product measured by reverse phase HPLC)
Type: biochemical
Details: arachidonic acid substrate, room temperature, PBS pH 7.4
Description: The assay employed takes advantage of the ability of lipoxygenases to oxidize polyunsaturated fatty acids, containing a 1,4-cis-pentadiene configuration, to their corresponding hydroperoxy or hydroxyl derivatives. In this particular assay, the lipoxygenase was a purified human 15-lipoxygenase and the fatty acid was arachidonic acid. The assay is performed at room temperature (20-22° C.) and the following are added to each well in a 96-well microliter plate:
a) 35 μL phosphate buffered saline (PBS) (pH 7.4);
b) inhibitor (i.e. compound) or vehicle (0.5 μl DMSO);
c) 10 μL of a 10× concentrated solution of 15-lipoxygenase in PBS. The plates are incubated for 5 minutes at room temperature;
The plate is then incubated for 10 minutes at room temperature;
e) the enzymatic reaction is terminated by the addition of 100 μl methanol; and
f) the amount of 15-hydroperoxy-eicosatetraenoic acid or 15-hydroxyeicosatetraenoic acid is measured by reverse phase HPLC.

SMILES | IC50 [µM]
Cc1cn(C(=O)NCCc2cccs2)nc1C(=O)Nc1ccc(F)cc1Cl [Example 4, 4-Methylpyrazole-1,3-dicarboxylic acid 3-[(2-chloro-4-fluorophenyl)-amide] 1-[(2-thien-2-ylethyl)amide]] | 3.71
CCOC(=O)CNC(=O)n1cc(C)c(C(=O)Nc2ccc(F)cc2Cl)n1 [Example 17, {[3-(2-Chloro-4-fluorophenylcarbamoyl)-4-methylpyrazole-1-carbonyl]-amino}acetic acid ethyl ester] | 8.51
CCCCOc1ccc(S(=O)(=O)n2nc(C(=O)Nc3ccc(F)cc3Cl)cc2C)cc1 [Example 50, 1-(4-Butoxy-benzenesulfonyl)-5-methylpyrazole-3-carboxylic acid (2-chloro-4-fluorophenyl)amide] | 8.33

Continued, values first:

IC50 [µM] | SMILES
0.71 | Cc1cc(C(=O)Nc2ccc(F)cc2Cl)nn1C(=O)NCCc1cccs1 [Example 30, 5-Methylpyrazole-1,3-dicarboxylic acid 3-[(2-chloro-4-fluorophenyl)-amide] 1-[(2-thien-2-ylethyl)-amide]]
0.63 | CCOC(=O)CNC(=O)n1nc(C(=O)Nc2ccc(F)cc2Cl)cc1C [Example 31, {[3-(2-Chloro-4-fluorophenylcarbamoyl)-5-Methylpyrazole-1-carbonyl]-amino}-acetic acid ethyl ester]
0.66 | Cc1cc(C(=O)Nc2ccc(F)cc2Cl)nn1C(=O)NC1CCN(C(=O)OCc2ccccc2)CC1 [Example 32, 4-{[3-(2-Chloro-4-fluorophenylcarbamoyl)-5-methylpyrazole-1-carbonyl]amino}-piperidine-1-carboxylic acid benzyl ester]
5.6 | C=CCNC(=O)n1nc(C(=O)Nc2ccc(F)cc2Cl)cc1C [Example 33, 5-Methylpyrazole-1,3-dicarboxylic acid 1-allylamide 3-[(2-chloro-4-fluorophenyl)amide]]
5.87 | COc1ccc(S(=O)(=O)n2nc(C(=O)Nc3ccc(F)cc3Cl)cc2C)cc1 [Example 51, 1-(4-Methoxy-benzenesulfonyl)-5-methylpyrazole-3-carboxylic acid (2-chloro-4-fluorophenyl)amide]
